Laboratory results as given in patent US6579878B1, “Pharmaceutical compositions and methods for use” (priority 2000, dated 2003).

Experiments:
[1] = target: muscle-type nicotinic acetylcholine receptors (Homo sapiens, UniProt P02708+P07510+Q07001); test: Determination of interaction with muscle receptors; type: cell-based; conditions: percentage of the maximal activation induced by (S)-(-)-nicotine
Method: (§1) The determination of the interaction of the compounds with muscle receptors was carried out in accordance with the techniques described in U.S. Pat. No. 5,597,919 to Dull et al. The maximal activation for individual compounds (Emax) was determined as a percentage of the maximal activation induced by (S)-(−)-nicotine. Reported Emax values represent the amount released relative to (S)-(−)-nicotine on a percentage basis. […] Such preferable compounds have the capability to activate human CNS receptors without activating muscle-type nicotinic acetylcholine receptors. Thus, there is provided a therapeutic window for utilization in the treatment of CNS disorders.

[2] = tested on: ganglia-type nicotinic acetylcholine receptors; test: Determination of interaction with ganglion receptors; type: cell-based; conditions: percentage of the maximal activation induced by (S)-(-)-nicotine
Method: as §1, with “ganglionic” for “muscle”, “ganglia-type” for “muscle-type”

[3] = tested on: Rat brain synaptosomes; test: Neurotransmitter release from brain synaptosomes; type: biochemical; conditions: in the presence of 10 uM ligand; percentage of release obtained with 10 uM (S)-(-)-nicotine or 300 uM TMA
Method: Neurotransmitter release was measured using techniques similar to those previously published (Bencherif M, et al.: JPET 279: 1413-1421,1996).
Rat brain synaptosomes were prepared as follows: Female Sprague Dawley rats (100-200 g) were killed by decapitation after anesthesia with 70% CO2. Brains are dissected, and hippocampus, striatum, and thalamus isolated, and homogenized in 0.32 M sucrose containing 5 mM HEPES pH 7.4 using a glass/glass homogenizer. The tissue was then centrifuged for 1000×g for 10 minutes and the pellet discarded. The supernatant was centrifuged at 12000×g for 20 minutes. The resultant pellet was re-suspended in perfusion buffer (128 mM NaCl, 1.2 mM KH2PO4, 2.4 mM KCl, 3.2 mM CaCl2, 1.2 mM MgSO4, 25 mM HEPES, 1 mM Ascorbic acid, 0.01 mM pargyline HCl and 10 mM glucose pH 7.4) and centrifuged for 15 minutes at 25000×g. The final pellet was resuspended in perfusion buffer and placed in a water bath (37° C.) for 10 minutes. […] The perfusate was collected directly into scintillation vials and released radioactivity was quantified using conventional liquid scintillation techniques. Release of neurotransmitter was determined in the presence of 10 uM of various ligands and was expressed as a percentage of release obtained with a concentration of 10 uM (S)-(−)-nicotine or 300 uM TMA resulting in maximal effects.

Sequence of muscle-type nicotinic acetylcholine receptors (P02708 21-457): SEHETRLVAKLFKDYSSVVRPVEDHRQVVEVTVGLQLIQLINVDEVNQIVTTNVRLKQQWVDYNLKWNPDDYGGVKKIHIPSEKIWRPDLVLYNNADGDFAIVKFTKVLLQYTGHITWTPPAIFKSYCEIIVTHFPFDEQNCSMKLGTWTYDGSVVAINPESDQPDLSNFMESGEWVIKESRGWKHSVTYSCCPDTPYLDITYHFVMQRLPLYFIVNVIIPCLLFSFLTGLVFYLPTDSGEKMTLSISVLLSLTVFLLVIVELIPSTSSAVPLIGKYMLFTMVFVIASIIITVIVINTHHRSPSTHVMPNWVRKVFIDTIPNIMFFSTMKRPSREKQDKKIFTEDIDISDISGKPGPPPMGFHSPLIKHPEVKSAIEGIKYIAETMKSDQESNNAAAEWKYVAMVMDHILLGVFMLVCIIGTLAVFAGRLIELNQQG
Sequence of muscle-type nicotinic acetylcholine receptors (P11230 24-501 partner): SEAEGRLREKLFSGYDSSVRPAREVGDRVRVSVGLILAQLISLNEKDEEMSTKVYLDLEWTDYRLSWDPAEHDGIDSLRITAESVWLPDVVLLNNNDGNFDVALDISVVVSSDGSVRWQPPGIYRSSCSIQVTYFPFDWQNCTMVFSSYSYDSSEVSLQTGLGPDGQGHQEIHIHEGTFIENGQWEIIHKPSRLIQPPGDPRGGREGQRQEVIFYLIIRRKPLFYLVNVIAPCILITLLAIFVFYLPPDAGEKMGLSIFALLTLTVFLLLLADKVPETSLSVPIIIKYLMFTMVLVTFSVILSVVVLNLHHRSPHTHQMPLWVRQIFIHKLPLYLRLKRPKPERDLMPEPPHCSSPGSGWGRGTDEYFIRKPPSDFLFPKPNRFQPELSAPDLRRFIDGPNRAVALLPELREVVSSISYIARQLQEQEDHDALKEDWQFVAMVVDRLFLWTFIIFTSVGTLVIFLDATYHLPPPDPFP
Sequence of muscle-type nicotinic acetylcholine receptors (Q07001 22-517): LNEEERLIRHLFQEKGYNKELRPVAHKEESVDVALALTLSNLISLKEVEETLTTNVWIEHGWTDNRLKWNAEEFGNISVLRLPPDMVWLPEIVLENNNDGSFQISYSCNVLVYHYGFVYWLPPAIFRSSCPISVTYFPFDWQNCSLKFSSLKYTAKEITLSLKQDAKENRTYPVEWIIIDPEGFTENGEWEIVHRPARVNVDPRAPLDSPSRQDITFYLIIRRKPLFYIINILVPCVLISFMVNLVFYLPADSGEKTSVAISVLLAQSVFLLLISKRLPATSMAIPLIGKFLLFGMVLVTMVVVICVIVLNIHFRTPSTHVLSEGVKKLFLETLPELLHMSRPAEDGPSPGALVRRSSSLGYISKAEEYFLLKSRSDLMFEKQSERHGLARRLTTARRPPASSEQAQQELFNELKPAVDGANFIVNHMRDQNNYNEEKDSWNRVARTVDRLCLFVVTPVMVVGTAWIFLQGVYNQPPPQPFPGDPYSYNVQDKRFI
Sequence of muscle-type nicotinic acetylcholine receptors (P07510 23-517): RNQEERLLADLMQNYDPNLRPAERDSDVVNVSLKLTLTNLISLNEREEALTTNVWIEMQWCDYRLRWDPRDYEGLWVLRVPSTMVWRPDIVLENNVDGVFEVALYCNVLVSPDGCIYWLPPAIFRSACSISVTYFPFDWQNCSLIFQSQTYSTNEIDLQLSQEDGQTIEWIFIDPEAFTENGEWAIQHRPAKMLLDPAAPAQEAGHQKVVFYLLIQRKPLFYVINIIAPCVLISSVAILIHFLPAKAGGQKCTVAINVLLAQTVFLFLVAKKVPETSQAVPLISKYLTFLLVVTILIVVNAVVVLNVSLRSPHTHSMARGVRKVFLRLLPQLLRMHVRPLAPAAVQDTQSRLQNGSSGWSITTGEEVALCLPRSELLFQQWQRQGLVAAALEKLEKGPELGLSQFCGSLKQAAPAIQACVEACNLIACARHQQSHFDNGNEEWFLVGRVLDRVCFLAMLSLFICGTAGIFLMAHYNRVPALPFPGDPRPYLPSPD

c1cncc(CC2CC3CCC2N3)c1 (stereo not drawn) [Example 1, 2-((3-pyridyl)methyl)-7-azabicyclo[2.2.1]heptane]
Emax [1]: 52% | Emax, maximal activation at ganglia-type receptors [2]: 48% | Emax, neurotransmitter release [3]: 15%
